1 molecule from ChEMBL document CHEMBL5331051, “Cationic, amphipathic small molecules based on a triazine-piperazine-triazine scaffold as a new class of antimicrobial agents” (Eur J Med Chem, 2022) can be followed below.

Converted amounts (≈) assume the structure as drawn. The source made the active and inactive calls. The calls are words filed in the database; no cut-off is given here.

The subject of data set [1] is Escherichia coli. As to the kind of experiment: Antibacterial activity against Escherichia coli KCTC 1682 strain assessed as bacterial growth inhibition measured after 6 hrs in presence of pepsin by radial diffusion assay. The class given is functional, organism-based.
Data set [2] relates to Cell membrane. As to the kind of experiment: Induction of inner membrane permeabilization in Escherichia coli ML-35 assessed as increase in […] at 2 times MIC by ONPG staining based analysis.
In data set [3] the test system is Cell membrane. The experiment in a line: Induction of cell membrane depolarization in Staphylococcus aureus assessed as increase in fluorescence intensity at 2 times MIC by SYTOX green staining based analysis.
Another data set deals with Erythrocyte. The experiment in a line: Hemolytic activity in sheep RBC assessed as minimal hemolytic concentration causing 10% hemolysis incubated for 1 hr by ELISA. The data set is classed as toxicity, cell-based, Ovis aries.
The subject of data set [4] is Cell membrane. The experiment in a line: Induction of cell membrane depolarization in Staphylococcus aureus assessed as fluorescence intensity at 2 to 16 times MIC by DiSC3(5) dye based fluorescence assay. The class given is subcellular.
In data set [5] the test system is Escherichia coli. The experiment in a line: Antibacterial activity against Escherichia coli KCTC 1682 strain assessed as bacterial growth inhibition measured after 6 hrs in presence of proteinase K by radial diffusion assay. The class given is functional, organism-based.
For another data set, the system named is Enterococcus faecium. As to the kind of experiment: Antibacterial activity against vancomycin-resistant Enterococcus faecium ATCC 51559 strain assessed as bacterial growth inhibition measured at 18 to 24 hrs by microdilution assay. The class given is functional. The settings on record: time 18-24 hrs.
Data set [6] concerns Escherichia coli. As to the kind of experiment: Antibacterial activity against Escherichia coli KCTC 1682 strain assessed as bacterial growth inhibition measured after 6 hrs in presence of trypsin by radial diffusion assay. The class given is functional, organism-based.
In data set [7] the test system is Cell membrane. The experiment in a line: Induction of outer membrane permeabilization in Escherichia coli KCTC 1682 assessed as increase in fluorescence intensity at 2 to 8 ug/ml by NPN staining based analysis. The settings on record: dose 2-8 µg/ml.
In data set [8] the test system is Cell membrane. The experiment in a line: Induction of cell membrane damage in Escherichia coli KCTC 1682 assessed as increase in fluorescent intensity at 2 times MIC incubated for 30 mins by PI staining based flow cytometry assay (reference value: 9.79 %). The class given is subcellular.
Data set [9] relates to Cell membrane. The experiment in a line: Induction of cell membrane depolarization in Staphylococcus aureus assessed as increase in fluorescence intensity at 2 times MIC by DiSC3(5) dye based fluorescence assay.
Data set [10] relates to Escherichia coli. The experiment in a line: Antibacterial activity against Escherichia coli KCTC 1682 strain assessed as bacterial growth inhibition measured after 6 hrs in presence of chymotrypsin by radial diffusion assay. The class given is functional, organism-based.

On to `CC[C@H](C)[C@H](NC(=O)CN)C(=O)NCC(=O)N[C@@H](C)C(=O)N[C@H](C(=O)N[C@@H](CC(C)C)C(=O)N[C@@H](CCCCN)C(=O)N[C@H](C(=O)N[C@@H](CC(C)C)C(=O)N[C@H](C(=O)N[C@H](C(=O)NCC(=O)N[C@@H](CC(C)C)C(=O)N1CCC[C@H]1C(=O)N[C@@H](C)C(=O)N[C@@H](CC(C)C)C(=O)N[C@H](C(=O)N[C@@H](CO)C(=O)N[C@@H](Cc1c[nH]c2ccccc12)C(=O)N[C@H](C(=O)N[C@@H](CCCCN)C(=O)N[C@@H](CCCNC(=N)N)C(=O)N[C@@H](CCCCN)C(=O)N[C@@H](CCCNC(=N)N)C(=O)N[C@@H](CCC(N)=O)C(=O)N[C@@H](CCC(N)=O)C(N)=O)[C@@H](C)CC)[C@@H](C)CC)[C@@H](C)O)[C@@H](C)O)C(C)C)C(C)C` [MELITTIN], for which the result with Escherichia coli [1], with Cell membrane [4], in the data set with Escherichia coli [5], with Escherichia coli [6] and in the data set on Escherichia coli [10] was inactive. For the same molecule, the result in the data set with Cell membrane [2], with Cell membrane [3], in the data set on Cell membrane [7] and with Cell membrane [9] was Active. In the data set with Erythrocyte, the MHC worked out at 3.2 µM. Besides, in the data set with Enterococcus faecium, the MIC came out at 5.6 µM (≈ 15.9 µg/mL). Also, in the data set on Cell membrane [8], the Flu intensity was 64.2%.
